One test deals with IIA-sPLA2. Nature of the test: IIA-sPLA2 protein expression and secretion, Western blot of supernatants. The format is cell-based, rat. The conditions noted are these: mesangial cells, IL-1β (1 nM), FIG. 2A. Here is the method: (§1) Quiescent cells were stimulated with either DMEM (−), or IL-1β (1 nM) in the absence (−) or presence of AKH-217 (etOH), vehicle control. • (A) Supernatants were taken for protein precipitation and precipitated proteins were separated by SDS-PAGE and subjected to a Western blot analysis using a monoclonal antibody against rat sPLA2. […] Cells were taken for RNA extraction and subjected to quantitative PCR analysis of rat IIA-sPLA2 and 18 S RNA. ΔΔCt values were calculated and results are expressed as % of maximal IL-1β-stimulated response and are means±S.D. (n=3). • (C) Cells were transfected with the sPLA2 promoter construct plus a plasmid coding for the Renilla luciferase. After transfection, cells were stimulated for 24 h with vehicle (−), IL-1β (1 nM), or IL-1β plus 10 μM of AKH-217. sPLA2 promoter activity was calculated and results are expressed as relative luciferase units (RLU) and are means±S.D. (n=3).
(§2) It has been previously shown that the cytokine-induced PGE2 formation in mesangial cells involves both sPLA2 and cPLA2 activation (Pfeilschifter et al., 1993), we then investigated the effect of the inhibitors above on sPLA2 protein and mRNA expressions. […] This effect on sPLA2 mRNA expression was due to a reducing effect on gene transcription. This was shown by a luciferase reporter gene assay that reflected sPLA2 promoter activity.

The next test relates to IIA-sPLA2 mRNA. Put plainly: IIA-sPLA2 mRNA expression, quantitative PCR. The format is cell-based, rat. As to conditions: mesangial cells, IL-1β (1 nM), FIG. 2B. Here is the method: as §1, §2
For another test, the system named is rat IIA-sPLA2 promoter. Put plainly: sPLA2 promoter activity, luciferase reporter gene assay. The format is cell-based. The conditions noted are these: IL-1β (1 nM), 24 h, 10 μM compound, FIG. 2C. The procedure:
as §1
It has been previously shown that the cytokine-induced PGE2 formation in mesangial cells involves both sPLA2 and cPLA2 activation (Pfeilschifter et al., 1993), we then investigated the effect of the inhibitors above on sPLA2 protein and mRNA expressions. […] This effect on sPLA2 mRNA expression was due to a reducing effect on gene transcription. This was shown by a luciferase reporter gene assay that reflected sPLA2 promoter activity. […]

Test [1] deals with rat renal mesangial cells. Nature of the test: cytokine-stimulated NO formation in mesangial cells (Griess Reaction assay). It is filed as cell-based. The conditions noted are these: IL-1β (1 nM), FIG. 3. Here is the method: Quiescent cells were stimulated with either DMEM (−), IL-1β (1 nM; +), in the absence or presence of the indicated concentrations of AKH-217, AVX002, or AACOCF3. Supernatants were collected and taken for nitric oxide (NO) quantification by using a Griess Reaction assay. Data are expressed as μM of NO in the supernatant and are means±S.D. (n=3).
(§3) To see whether this effect is due to altered gene transcription of iNOS, luciferase reporter gene assays were performed to measure iNOS promoter activity. A 4.5 kb fragment of the rat iNOS promoter was kindly provided by Dr. K. F. Beck (pharmazentrum frankfurt).

Another test deals with iNOS. Put plainly: iNOS protein expression, Western blot. The format is cell-based, rat. As to conditions: mesangial cells, IL-1β (1 nM), FIG. 4A. Here is the method:
(§4) Quiescent cells were stimulated with either vehicle (DMEM), IL-1β (1 nM), in the absence (−) or presence of the indicated concentrations (in μM) of AVX001 and AVX002. EtOH, vehicle control.(A) Cells were taken for protein extraction and equal amount of protein were separated by SDS-PAGE and subjected to a Western blot analysis using a polyclonal antibody against iNOS at a dilution of 1:2000. Data are representative of at least 3 independent experiments giving similar results. (B). Cells were taken for RNA extraction and subjected to quantitative PCR analysis of rat iNOS and 18 S RNA. ΔΔCt values were calculated and results are expressed as % of maximal IL-1β response and are means±S.D (n=3). • (C) Cells were transfected with the rat iNOS promoter construct plus a plasmid coding for the Renilla luciferase. After transfection, cells were stimulated with vehicle (−), IL-1β (1 nM), or IL-1β plus 10 μM of AVX001. iNOS promoter activity was calculated and results are expressed as relative luciferase units (RLU) and are means±S.D. (n=3).
as §3

In another test the test system is rat iNOS promoter. Nature of the test: iNOS promoter activity, luciferase reporter gene assay. The format is cell-based. The conditions noted are these: IL-1β (1 nM), 10 μM compound, FIG. 4C. Here is the method: as §4, §3
The test system of the next test is mesangial cells. Nature of the test: [3H]thymidine incorporation in mesangial cells (proliferation). The format is cell-based, rat. As to conditions: 24 h; ATP 100 μM, insuline 100 ng/ml or IGF 50 ng/ml, FIGS. 5A and 5B. The procedure:
Quiescent cells were stimulated for 24 h with vehicle (DMEM), or 100 μM of ATP in the absence (−) or presence of the indicated concentrations of AVX001 or AVX002, in the presence of [^3H]thymidine. • (B) Cells were stimulated for 24 h with insuline (100 ng/ml) or IGF (50 ng/ml) in the absence (−) or presence of 10 μM of AVX001 or AVX002, in the presence of [^3H]thymidine. Thymidine incorporated into DNA was determined and results are expressed as % of control and are means±S.D. (n=3). Glomerulonephritis is characterized in a first early phase by increased mesangial apoptosis which in a second phase is replaced by an opposite event, i.e. hyperproliferation of mesangial cells. Many previous studies have shown that quiescent mesangial cells in culture can re-enter the cell cycle when exposed to various growth factors, including PDGF, insulin, insulin-like growth factor (IGF), or extracellular nucleotides such as ATP and UTP. […] In the presence of either AKH217 or AVX002, agonist-stimulated [^3H]thymidine incorporation is reduced (FIGS. 5A and 5B). Similar data were also obtained when cells were stimulated with PDGF.

The next test deals with phospho-p65 (NFκB). Nature of the test: NFκB activation, Western blot of phospho-p65. The format is cell-based, rat. As to conditions: IL-1β (2 nM) 30 min, 10 μM compound pretreated 2 h, FIG. 6. Here is the method:
Quiescent cells were stimulated for 30 min with either vehicle (DMEM), or IL-1β (2 nM) in the absence (−) or presence (+) of AVX001 or AVX002 (10 μM, pretreated 2 h). Thereafter, cell lysates were separated by SDS-PAGE and subjected to a Western blot analysis using a polyclonal antibody against phospho-p65 (NFκB) (upper panel), HuR as a loading control (middle panel), and IκB (lower panel). Data in FIG. 6A show duplicates of one representative experiments. FIGS. 6B and C show the densitometric evaluation of NFκB and IκB bands.
NFκB activation was measured by Western blot analyses by detecting the amount of phospho-p65 which represents the active transcription factor subunit.

Turning to `CC/C=C\C/C=C\C/C=C\C/C=C\CC/C=C/CSCC(=O)C(F)(F)F` [AKH-217], the “IIA-sPLA2 protein expression and secretion” value in the test on IIA-sPLA2 is on record as “reduce”. The “IIA-sPLA2 mRNA expression” value with IIA-sPLA2 mRNA is given as “reduce”. Besides, the “IL-1β-stimulated sPLA2 promoter activity” value in the test on rat IIA-sPLA2 promoter was “completely reduced”. The “IL-1β-stimulated NO formation” value in test [1] is recorded as “reduced in a dose-dependent manner”. Besides, the “protein expression of iNOS induced by IL-1β” value in the test with iNOS is “down-regulated”. Further, the “IL-1β-stimulated iNOS promoter activity” value in the test with rat iNOS promoter is listed as “completely lost”. Also, the “agonist-stimulated [3H]thymidine incorporation” value in the test with mesangial cells is given as “reduced”. The “IL-1β-induced increase of phospho-p65” value with phospho-p65 (NFκB) was “reduced”.
Consider `CC/C=C\C/C=C\C/C=C\C/C=C\C/C=C\CCSCC(=O)C(F)(F)F` [AVX002], for which the “IL-1β-stimulated NO formation” value in test [1] was “reduced in a dose-dependent manner”. Moreover, the “protein expression of iNOS induced by IL-1β” value in the test on iNOS is recorded as “down-regulated”. Further, in the test on mesangial cells, the “agonist-stimulated [3H]thymidine incorporation” value is on record as “reduced”.

For the origin of these results see patent US20120136066A1, “Glomerulonephritis Treatment” (AVEXXIN AS, priority 2009, published 2012).
